According to patent US9861601B2 (The Board of Trustees of the Leland Stanford Junior …, priority 2012, dated 2018):

Experiments:
[1] = system: model of rodent PH utilizing SU and exposure to chronic hypoxia; assay: Rodent PH model utilizing SU and chronic hypoxia (animals not prone to immune dysregulation); assay type: in vivo; details: therapy initiated late in disease development
[2] = Pharmacokinetic analysis of oral ubenimex formulation; assay type: in vivo, rat; details: PEG-400/HPCD formulation
Procedure: (§1) In the model, PH was first initiated by a single injection of a VEGFR2 inhibitor, SU5416, and monitored by weekly echocardiography. Survival of the animals was recorded on daily basis. […] After 5 weeks (day 35), animals were sacrificed after right heart catheterization. […] Oral availability of ubenimex was determined by pharmacokinetic analysis.
(not a statin-derivative), is a well-tolerated LTA4H inhibitor that blocks LTB4 formation. […] Ubenimex efficacy in reversing PAH was dose-dependent. The sustained release oral formulation was absorbed rapidly within 2-3 hours and was eliminated from the body with a T1/2 of 12 hours.
A 20% (w/v) aqueous solution of hydroxypropyl-β-cyclodextrin (HPCD) was added to the mixture to bring the volume to 50 ml.

[3] = system: athymic rat model of PAH; assay: SU5416 athymic nude rat model of PAH (PH); assay type: in vivo; details: for reversal of established PH / PH-related death: treatment started 21 days (3 wk) after SU5416, doses as in b355, assessed at wk 5
Procedure: as §1
The athymic nude rat model is an accepted model of severe PAH associated with immune dysregulation. Athymic nude rats (rnu/rnu) (Charles River Laboratories) were used for these studies. Six to eight week old animals were injected subcutaneously (s.c.) with a single dose of either SU5416 (SU) (10 mg/kg) dissolved in DMSO or DMSO (vehicle) alone. All animals were maintained in normoxic conditions. PH progression was monitored by weekly echocardiography (ECHO). Survival of rats was monitored out to wk 5 when they underwent a terminal right heart catheterization. PH was confirmed by ECHO. Hemodynamic measurements included right ventricular systolic pressure (RVSP) determined by right heart catheterization and right ventricular hypertrophy (RVH) determined by the weight ratio of RV/(LV+S) (right ventricle/(left ventricle+septum)).
All animals were sacrificed 5 wk after SU administration for hemodynamic measurements. […] Serial improvement was observed from the time of treatment initiation. Interval improvement was manifested by decreasing RV wall thickness and increasing pulmonary artery acceleration times (PAAT) after initiation of treatment. […] Here again, the compound of Formula III was notable: treatment with that compound yielded an RVH ratio of 0.29. RVH for healthy rats is generally about 0.25.

With `CC(C)C[C@H](NC(=O)[C@@H](O)[C@H](N)Cc1ccccc1)C(=O)O` [ubenimex, (2S)-2-[[(2S,3R)-3-amino-2-hydroxy-4-phenylbutanoyl]amino]-4-methylpentanoic acid] the “response of PH animals to therapy” value [1] was “did not respond”, the time of absorption [2] was no more than 2 h and the half-life ([2]; athymic, rat, in vivo) was 12 h. The “accumulation of 5-LO expressing periarteriolar macrophages and B cells in lungs” value ([3]; SU-treated athymic rats) was “significantly reduced”, the “in vivo PAEC apoptosis” value ([3]; SU-treated athymic rats) was “reduced” and the “improvement in RVSP, RVH and survival” value ([3]; oral once a day 0.25, 0.5, 0.75, 1 mg/kg, from 3 weeks after SU5416 for 2 weeks) was “dose dependent improvement”. For the same molecule, the “prevention of PH development and survival” value ([3]; systemic therapy initiated when SU was first administered) was “very effectively prevented PH development and prolonged survival”, the “reversal of established PH / PH-related death” value [3] was “reverses established PH” and the “reversal of established PH / PH-related death” value ([3]; listed as Ubenimex) was “dose-dependent”.
